What all share (assay): two-electrode voltage clamp, oocytes
Common to all, as to format: cell-based
In general terms: Two-electrode voltage clamp is typically applied to oocytes expressing channels or transporters.

Test [1] concerns the target T1, LGC-39 (Caenorhabditis elegans, UniProt O17402).
T1 construct: full-length cDNA by gene synthesis, KSM vector, cRNA in Xenopus laevis oocytes; homomeric pentameric channel
T1 sequence (O17402 22-563): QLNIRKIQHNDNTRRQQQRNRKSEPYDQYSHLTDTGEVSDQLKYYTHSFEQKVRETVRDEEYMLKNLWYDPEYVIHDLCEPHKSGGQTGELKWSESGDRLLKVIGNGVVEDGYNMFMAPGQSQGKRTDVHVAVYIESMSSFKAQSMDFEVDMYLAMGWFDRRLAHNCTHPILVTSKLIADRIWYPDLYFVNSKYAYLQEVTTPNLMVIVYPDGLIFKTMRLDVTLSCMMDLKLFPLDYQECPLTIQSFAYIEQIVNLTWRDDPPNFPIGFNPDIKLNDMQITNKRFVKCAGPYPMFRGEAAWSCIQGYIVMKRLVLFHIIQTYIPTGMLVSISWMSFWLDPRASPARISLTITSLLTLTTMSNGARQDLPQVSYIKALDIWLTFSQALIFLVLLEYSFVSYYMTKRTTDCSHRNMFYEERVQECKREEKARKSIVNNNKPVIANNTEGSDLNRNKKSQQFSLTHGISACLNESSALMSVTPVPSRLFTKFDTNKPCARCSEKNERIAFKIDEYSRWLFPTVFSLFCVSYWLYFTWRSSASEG

The target of test [2] is T1, LGC-39. This is another data set of the same source.
A further test deals with T2, LGC-46 (Caenorhabditis elegans, UniProt Q95Y52).
T2 construct: full-length cDNA in KSM vector, cRNA in Xenopus laevis oocytes; pentameric, expressed alone
T2 sequence (Q95Y52 19-508): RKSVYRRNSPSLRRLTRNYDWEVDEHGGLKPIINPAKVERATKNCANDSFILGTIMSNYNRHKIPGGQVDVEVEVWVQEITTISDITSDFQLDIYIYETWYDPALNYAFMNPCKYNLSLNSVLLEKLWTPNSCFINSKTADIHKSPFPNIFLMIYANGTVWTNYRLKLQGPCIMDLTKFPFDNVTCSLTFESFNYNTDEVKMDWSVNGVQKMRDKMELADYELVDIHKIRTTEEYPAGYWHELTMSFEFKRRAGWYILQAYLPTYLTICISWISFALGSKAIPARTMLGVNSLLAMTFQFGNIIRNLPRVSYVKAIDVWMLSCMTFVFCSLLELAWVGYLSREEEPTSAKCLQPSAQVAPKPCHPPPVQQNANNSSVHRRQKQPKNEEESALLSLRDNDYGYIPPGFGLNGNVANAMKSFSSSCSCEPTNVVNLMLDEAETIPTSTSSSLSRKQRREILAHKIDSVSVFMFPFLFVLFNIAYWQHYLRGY
As to conditions: agonist; ND96, clamped at -60 mV.

A further test addresses T3, LGC-40 (Caenorhabditis elegans, UniProt Q22741).
T3 construct: full-length untagged cDNA in KSM vector, cRNA in Xenopus laevis oocytes; pentameric, expressed alone
T3 sequence (Q22741 23-494): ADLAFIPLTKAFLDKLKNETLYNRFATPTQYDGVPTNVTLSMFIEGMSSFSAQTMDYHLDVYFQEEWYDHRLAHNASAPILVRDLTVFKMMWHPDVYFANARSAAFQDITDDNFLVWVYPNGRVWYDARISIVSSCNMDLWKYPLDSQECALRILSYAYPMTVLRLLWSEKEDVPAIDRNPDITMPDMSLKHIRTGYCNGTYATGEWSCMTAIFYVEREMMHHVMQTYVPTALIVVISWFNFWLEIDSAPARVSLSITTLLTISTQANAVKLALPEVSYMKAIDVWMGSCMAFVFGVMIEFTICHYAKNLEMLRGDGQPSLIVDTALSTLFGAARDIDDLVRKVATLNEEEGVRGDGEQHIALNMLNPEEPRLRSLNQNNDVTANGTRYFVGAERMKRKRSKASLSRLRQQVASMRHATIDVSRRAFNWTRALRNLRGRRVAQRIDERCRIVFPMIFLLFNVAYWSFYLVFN

For the next test, the target named is T4, LGC-58 (Caenorhabditis elegans, UniProt Q2WF65).
T4 construct: full-length untagged cDNA in KSM vector, cRNA in Xenopus laevis oocytes; pentameric, expressed alone
T4 sequence (Q2WF65 21-546): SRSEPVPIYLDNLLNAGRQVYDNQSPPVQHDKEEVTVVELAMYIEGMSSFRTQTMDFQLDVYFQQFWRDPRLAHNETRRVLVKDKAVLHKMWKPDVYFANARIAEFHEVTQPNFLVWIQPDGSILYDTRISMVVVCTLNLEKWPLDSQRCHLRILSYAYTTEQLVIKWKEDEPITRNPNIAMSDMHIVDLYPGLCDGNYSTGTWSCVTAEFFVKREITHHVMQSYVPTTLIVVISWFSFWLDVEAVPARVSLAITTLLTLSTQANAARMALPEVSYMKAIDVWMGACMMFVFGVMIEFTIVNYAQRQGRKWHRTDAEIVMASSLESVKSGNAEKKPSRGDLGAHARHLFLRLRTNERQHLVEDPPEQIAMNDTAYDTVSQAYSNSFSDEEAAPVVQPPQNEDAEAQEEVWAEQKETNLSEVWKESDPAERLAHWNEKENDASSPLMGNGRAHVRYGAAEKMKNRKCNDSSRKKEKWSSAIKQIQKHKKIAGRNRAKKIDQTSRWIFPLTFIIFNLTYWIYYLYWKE

For a further test, the target named is T5, LGC-57 (Caenorhabditis elegans, UniProt Q09453).
T5 construct: full-length untagged cDNA in KSM vector, cRNA in Xenopus laevis oocytes; pentameric, expressed alone
T5 sequence (Q09453 20-473): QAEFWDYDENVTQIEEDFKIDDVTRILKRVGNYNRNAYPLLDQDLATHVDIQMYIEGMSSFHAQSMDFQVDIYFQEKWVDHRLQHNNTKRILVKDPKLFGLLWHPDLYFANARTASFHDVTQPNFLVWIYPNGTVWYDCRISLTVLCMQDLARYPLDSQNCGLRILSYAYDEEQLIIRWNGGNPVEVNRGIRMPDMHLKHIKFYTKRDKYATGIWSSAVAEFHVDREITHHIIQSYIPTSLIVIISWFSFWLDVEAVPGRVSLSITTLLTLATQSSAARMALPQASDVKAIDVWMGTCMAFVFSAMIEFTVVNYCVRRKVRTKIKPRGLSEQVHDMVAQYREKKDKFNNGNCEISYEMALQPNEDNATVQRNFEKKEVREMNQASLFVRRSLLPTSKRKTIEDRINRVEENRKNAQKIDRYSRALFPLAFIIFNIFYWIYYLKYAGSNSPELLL

A further test addresses T6, LGC-49 (Caenorhabditis elegans, UniProt Q21420).
T6 construct: full-length cDNA in KSM vector, cRNA in Xenopus laevis oocytes; homomeric pentameric channel
T6 sequence (Q21420 26-457): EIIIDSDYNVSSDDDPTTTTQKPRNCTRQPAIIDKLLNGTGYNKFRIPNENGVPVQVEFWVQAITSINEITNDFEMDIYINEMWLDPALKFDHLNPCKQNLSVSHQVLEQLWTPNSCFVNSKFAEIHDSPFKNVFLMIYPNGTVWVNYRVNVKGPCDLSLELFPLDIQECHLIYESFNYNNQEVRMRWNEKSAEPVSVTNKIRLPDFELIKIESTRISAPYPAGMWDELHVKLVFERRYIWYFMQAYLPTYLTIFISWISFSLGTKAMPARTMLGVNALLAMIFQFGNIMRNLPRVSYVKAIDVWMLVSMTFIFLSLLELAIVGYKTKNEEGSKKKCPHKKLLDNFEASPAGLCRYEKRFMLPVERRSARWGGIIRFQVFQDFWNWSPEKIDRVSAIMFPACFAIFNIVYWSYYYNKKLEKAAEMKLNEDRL

Where two headings read alike, the source gives them in different places.

`NCCc1ccc(O)cc1` [tyramine]: the EC50 (usually the midpoint of the concentration-response curve) at LGC-39 [1] (read-out: EC50) was 686 µM.
`COC(=O)[C@@H]1[C@H]2C[C@H]3c4[nH]c5ccccc5c4CCN3C[C@@H]2CC[C@@H]1O` [yohimbine]: the IC50 (usually the concentration that gives 50% inhibition) on LGC-39 [2] is 4 µM.
Regarding `NC[C@H](O)c1ccc(O)cc1` [octopamine], the EC50 at LGC-39 [1] (read-out: EC50) came to 921 µM.
For the compound `CC(=O)OCC[N+](C)(C)C` [acetylcholine], the EC50 entry on LGC-46 was “the ACh-induced dose–response curve for LGC-46”; at LGC-40, 117 µM; at LGC-58 it was 41 µM; on LGC-57, 115 µM; at LGC-49 it was 19 µM; at LGC-39 [1] (read-out: EC50), 1290 µM.
In the case of `C[N+](C)(C)CCO` [choline], the half-maximal effective concentration (EC50) at LGC-40 came out at 15 µM; on LGC-58 it was 15 µM; at LGC-57 it was 22 µM.
The compound `O=C1C[C@@H]2OCC=C3CN4CC[C@]56c7ccccc7N1[C@H]5[C@H]2[C@H]3C[C@H]46` [strychnine] came in with a half-maximal effective concentration (EC50) on LGC-39 [1] of 7.5 µM.
With `NC1=NCC2c3ccccc3Cc3ccccc3N12` (stereo not drawn) [epinastine], the IC50 against LGC-39 [2] came out at 1 µM. Moreover, the EC50 at LGC-39 [1] (read-out: EC50) stood at 10 µM.

Values taken from article PMC9962794, “A Novel and Functionally Diverse Class of Acetylcholine-Gated Ion Channels” (The Journal of Neuroscience, 2023).
